Data from US10189842B2 (Agency for Science, Technology and Research, priority 2013, dated 2019).

Tested on: HEK293-STF3A cells
Assay: STF3A assay (luciferase reporter)
Assay type: cell-based, Human
Conditions: Homo sapiens, 24 h, 1 day of treatment
Description: HEK293-STF cell line was modified from Human embryonic kidney cell line HEK293 transfected with the STF reporter. HEK293-STF3A cell line was further modified from HEK293-STF cell line to express Wnt3A. This cell line was used to identify compounds that regulate either early or late signaling components of the Wnt pathway. These two cell lines were obtained from David Virshup's laboratory, Duke-NUS. L-Wnt3A (ATCC, #CRL-2647) cell line was used for providing Wnt3A conditioned media. The three cell lines were grown in DMEM with 10% FBS incubated in 37° C. with 5% CO2.
2×10^4 HEK293-STF3A cells in 75 μl culture media were seeded in each well of white 96 well plates (Greiner #655098) and incubated overnight at 37° C. 25 μl serially diluted compound was added to the cells to give final concentration of 50 μM to 1.5 nM. After 1 day of treatment, 100 μl of Steady-Glo Luciferase Assay reagent (#E2520, Promega) was added to each well and incubated for 10 minutes at room temperature. Luminescence was measured using Tecan Safire2 plate reader.

| SMILES | IC50 |
| --- | --- |
| COc1ccc(-c2ccc(NC(=O)CCC(=O)N3CCCn4nc(C)cc43)cc2)cc1 [Compound 63, N-(4′-methoxy-[1,1′-biphenyl]-4-yl)-4-(2-methyl-6,7-dihydropyrazolo[1,5-a]pyrimidin-4(5H)-yl)-4-oxobutanamide] | < 100 nM |
| Cc1cc2n(n1)CCCN2C(=O)CCC(=O)Nc1ccc(-c2ccccc2F)cc1 [Compound 64, N-(2′-fluoro-[1,1′-biphenyl]-4-yl)-4-(2-methyl-6,7-dihydropyrazolo[1,5-a]pyrimidin-4(5H)-yl)-4-oxobutanamide] | < 100 nM |
| Cc1cc2n(n1)CCCN2C(=O)CCC(=O)Nc1ccc(-c2cccc(F)c2)cc1 [Compound 65, N-(3′-fluoro-[1,1′-biphenyl]-4-yl)-4-(2-methyl-6,7-dihydropyrazolo[1,5-a]pyrimidin-4(5H)-yl)-4-oxobutanamide] | < 100 nM |
| Cc1cc2n(n1)CCCN2C(=O)CCC(=O)Nc1ccc(-c2ccc(F)cc2)cc1 [Compound 66, N-(4′-fluorobiphenyl-4-yl)-4-(2-methyl-6,7-dihydropyrazolo[1,5-a]pyrimidin-4(5H)-yl)-4-oxobutanamide] | < 1000 nM |
| Cc1cc2n(n1)CCCN2C(=O)CCC(=O)Nc1ccc(-c2cccc(C(=O)O)c2)cc1 [Compound 67, 4′-(4-(2-methyl-6,7-dihydropyrazolo[1,5-a]pyrimidin-4(5H)-yl)-4-oxobutanamido)-[1,1′-biphenyl]-3-carboxylic acid] | > 10000 nM |
| Cc1cc2n(n1)CCCN2C(=O)CCC(=O)Nc1ccc(-c2cccc(C(=O)N(C)C)c2)cc1 [Compound 68, N,N-dimethyl-4′-(4-(2-methyl-6,7-dihydropyrazolo[1,5-a]pyrimidin-4(5H)-yl)-4-oxobutanamido)-[1,1′-biphenyl]-3-carboxamide] | > 10000 nM |
| Cc1cc2n(n1)CCCN2C(=O)CCC(=O)Nc1ccc(-c2ccccc2N)cc1 [Compound 69, N-(2′-amino-[1,1′-biphenyl]-4-yl)-4-(2-methyl-6,7-dihydropyrazolo[1,5-a]pyrimidin-4(5H)-yl)-4-oxobutanamide] | < 1000 nM |
| Cc1cc2n(n1)CCCN2C(=O)CCC(=O)Nc1ccc(-c2cccc(N)c2)cc1 [Compound 70, N-(3′-amino-[1,1′-biphenyl]-4-yl)-4-(2-methyl-6,7-dihydropyrazolo[1,5-a]pyrimidin-4(5H)-yl)-4-oxobutanamide] | < 100 nM |
| Cc1cc2n(n1)CCCN2C(=O)CCC(=O)Nc1ccc(-c2ccc(N)cc2)cc1 [Compound 71, N-(4′-amino-[1,1′-biphenyl]-4-yl)-4-(2-methyl-6,7-dihydropyrazolo[1,5-a]pyrimidin-4(5H)-yl)-4-oxobutanamide] | < 100 nM |
| Cc1cc2n(n1)CCCN2C(=O)CCC(=O)Nc1ccc(-c2cccc(N(C)C)c2)cc1 [Compound 72, N-(3′-(dimethylamino)-[1,1′-biphenyl]-4-yl)-4-(2-methyl-6,7-dihydropyrazolo[1,5-a]pyrimidin-4(5H)-yl)-4-oxobutanamide] | > 10000 nM |
| Cc1cc2n(n1)CCCN2C(=O)CCC(=O)Nc1ccc(-c2cccc(N3CCOCC3)c2)cc1 [Compound 73, 4-(2-methyl-6,7-dihydropyrazolo[1,5-a]pyrimidin-4(5H)-yl)-N-(3′-morpholinobiphenyl-4-yl)-4-oxobutanamide] | < 5000 nM |
| CC(=O)Nc1cccc(-c2ccc(NC(=O)CCC(=O)N3CCCn4nc(C)cc43)cc2)c1 [Compound 74, N-(3′-acetamido-[1,1′-biphenyl]-4-yl)-4-(2-methyl-6,7-dihydropyrazolo[1,5-a]pyrimidin-4(5H)-yl)-4-oxobutanamide] | < 5000 nM |
| Cc1cc2n(n1)CCCN2C(=O)CCC(=O)Nc1ccc(C2CCCCC2)cc1 [Compound 75, N-(4-cyclohexylphenyl)-4-(2-methyl-6,7-dihydropyrazolo[1,5-a]pyrimidin-4(5H)-yl)-4-oxobutanamide] | > 10000 nM |
| Cc1cc2n(n1)CCCN2C(=O)CCC(=O)Nc1ccc(N2CCN(C(=O)OC(C)(C)C)CC2)cc1 [Compound 76, tert-butyl 4-(4-(4-(2-methyl-6,7-dihydropyrazolo[1,5-a]pyrimidin-4(5H)-yl)-4-oxobutanamido)phenyl)piperazine-1-carboxylate] | < 100 nM |
